Patent US20130029983A1, “AMINOTHIENOPYRIDAZINE INHIBITORS OF TAU ASSEMBLY” (priority 2009, published 2013)
Read-outs that look alike come from different tables or passages of the source.

Key:
[1] = target: T1, K18PL tau (Homo sapiens, UniProt P10636, P618L); assay: Heparin-induced K18PL tau fibrillization assay monitored by ThT fluorescence; type: biochemical; settings: for inhibition at 80 µM / Tau ThT Assay % Inhib.: highest tested concentration (80 μM); for inhibition at 80 µM: read-out: Tau ThT Assay % Inhib.; for Tau ThT Assay Log IC50 / IC50: logarithm of IC50, K18PL tau ThT fluorescence inhibition; for IC50: read-out: Tau ThT Assay Log IC50 (converted)
T1 construct: (K18PL; amino acids 244-369); made in house
T1 sequence (P10636 561-686 P618L): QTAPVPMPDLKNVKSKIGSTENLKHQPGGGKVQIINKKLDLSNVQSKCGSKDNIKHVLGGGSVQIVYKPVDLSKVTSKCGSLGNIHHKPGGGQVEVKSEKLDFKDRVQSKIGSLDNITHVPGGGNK
Procedure: Tau fibril formation reactions were performed essentially as described (Crowe, A., Ballatore, C., Hyde, E., Trojanowski, J. Q., and Lee, V. M. Y. (2007) Biochemical and Biophysical Research Communications 358, 1-6). K18PL (2 μl of a 30 μM stock that also contained 0.24 μM Alexa Red-labeled K18PL) was dispensed into black 1536-well plates (Grenier) using a solenoid-based dispenser. Following transfer of 23 nL of test compound or DMSO vehicle by a pin tool from compound library plates, 2 μl/well of 40 μM heparin in reagent buffer was dispensed and the plate was centrifuged for 15 s at 1000 rpm in a table-top centrifuge. The fibrillization reaction proceeded for 6 hours at 37° C. in a humidified incubator (Kalypsys).
K18PL fibril formation was quantified with a ThT assay as previously described (Crowe, A., Ballatore, C., Hyde, E., Trojanowski, J. Q., and Lee, V. M. Y. (2007) Biochemical and Biophysical Research Communications 358, 1-6). Briefly, 1 μl/well of 62.5 μM ThT (Sigma) in 100 mM glycine, pH 8.5 (12.5 μM final concentration) was dispensed into 1536-well plates after completion of the fibrillization reaction and incubated at room temperature for 1 hour. Plates were read on an Envision fluorescence plate reader with an excitation of 450 nm and an emission setting of 510 nm.
Compound effects on tau assembly were determined for the ThT and FP assays using the formula 1−(Fcompound− FDMSO)/( Fcontrol− FDMSO), where Fcontrol denotes the median plate fluorescence values (ThT assay) or mP values (FP assay) of the non-fibrillizing K18 KD control wells, FDMSO denotes the median value of the DMSO control wells, and Fcompound denotes the compound well values. The resulting values were multiplied by 100 to obtain the percent inhibition of tau fibril formation.
(§1) The solubility of test compounds in the sodium acetate buffer used for subsequent fibrillization reactions was determined by turbidimetric measurements. Compounds were then evaluated in a heparin-induced tau assembly assay, in which the fibrillization of the truncated K18 tau fragment (comprised of four MT-binding repeats) bearing the P301L mutation (K18PL) found in FTDP-17, was monitored by thioflavine-T (ThT) binding and fluorescence (FIG. 3A). (Crowe, A.; et al., Identification of aminothienopyridazine inhibitors of tau assembly by quantitative high-throughput screening. Biochemistry 2009, 48, 7732-45.) The inhibitory activity of test compounds was then confirmed with an orthogonal sedimentation assay in which compound-treated fibrillizing mixtures were centrifuged and quantitation of K18PL tau in the soluble and insoluble fraction was performed by densitometric analyses of SDS-PAGE (FIG. 3B). […] Thus, the tau fibrillization assay was repeated in which both DMSO- and compound-treated mixtures were initially centrifuged for 30 min. prior to incubation (i.e., at time zero of the fibrillization reaction) to remove any pelletable material.

[2] = target: T1, K18PL tau; assay: K18PL tau centrifugation (sedimentation) assay, SDS-PAGE densitometry; type: biochemical; settings: K18PL tau centrifugation assay
Procedure: The determination of compound-induced effects on the amount of tau that remains soluble upon centrifugation, and EM visualization of tau species following incubation with test compounds, were as previously described (Crowe, A., Ballatore, C., Hyde, E., Trojanowski, J. Q., and Lee, V. M. Y. (2007) Biochemical and Biophysical Research Communications 358, 1-6).
as §1

Structure (SMILES) | inhibition at 80 µM ([1]; Table 4) [%] | Tau ThT Assay Log IC50 ([1]; Table 4) | Tau Cent. Assay % Soluble ([2]; Table 4) [%] | IC50 ([1]; Table 4) [µM] | further results
CCOC(=O)c1nn(-c2ccc(Cl)cc2)c(=O)c2c(N)sc(Cl)c12 [CNDR-51393, Ethyl 5-amino-7-chloro-3-(4-chlorophenyl)-4-oxo-3,4-dihydrothieno[3,4-d]pyridazine-1-carboxylate] | 88 | −5.7 | 65 |  | 
Nc1scc2c(C(=O)NCCO)nn(-c3ccc(Cl)cc3)c(=O)c12 [CNDR-51433, 5-Amino-3-(4-chlorophenyl)-N-(2-hydroxyethyl)-4-oxo-3,4-dihydrothieno[3,4-d]pyridazine-1-carboxamide] | 82 |  | 77 | 3.98 | 
CCOC(=O)c1nn(-c2ccc(OC)cc2)c(=O)c2c(NC(=O)Cc3ccccc3)scc12 [Compound 9a] |  |  |  |  | Tau ThT Assay % Inhib. ([1]; Table 3): 31%; Tau Cent. Assay % Soluble ([2]; Table 3): 0%
CCOC(=O)c1nn(-c2ccccc2-c2ccccc2)c(=O)c2c(N)scc12 [CNDR-51435, Ethyl 3-([1,1′-biphenyl]-2-yl)-5-amino-4-oxo-3,4-dihydrothieno[3,4-d]pyridazine-1-carboxylate] | 78 |  | 65 | 0.794 | 
Nc1scc2c(C(=O)O)nn(-c3ccc(O)cc3)c(=O)c12 [CNDR-51374, 5-Amino-3-(4-hydroxyphenyl)-4-oxo-3,4-dihydrothieno[3,4-d]pyridazine-1-carboxylic acid] | 84 | −5.4 | 70 |  | 
Nc1scc2c(C(=O)O)nn(-c3ccc(Br)cc3)c(=O)c12 [CNDR-51389, 5-Amino-3-(4-bromophenyl)-4-oxo-3,4-dihydrothieno[3,4-d]pyridazine-1-carboxylic acid] | 95 |  | 78 | 3.16 | 
CCOC(=O)c1nn(-c2ccc(C(F)(F)F)cc2)c(=O)c2c(N)scc12 [CNDR-51373, Ethyl 5-amino-4-oxo-3-(4-(trifluoromethyl)phenyl)-3,4-dihydrothieno[3,4-d]pyridazine-1-carboxylate] | 48 |  | 27 | 10 | 
CC(C)NC(=O)c1nn(-c2ccc(OC(F)(F)F)cc2)c(=O)c2c(N)scc12 [CNDR-51375, 5-Amino-N-isopropyl-4-oxo-3-(4-(trifluoromethoxy)phenyl)-3,4-dihydrothieno[3,4-c]pyridazine-1-carboxamide] | 67 |  | 42 |  | 
CCOC(=O)c1nn(-c2ccc(O)cc2)c(=O)c2c(N)scc12 [CNDR-51363, Ethyl 5-amino-3-(4-hydroxyphenyl)-4-oxo-3,4-dihydrothieno[3,4-d]pyridazine-1-carboxylate] | 81 | −5.3 | 69 |  | 
Nc1scc2c(C(=O)O)nn(-c3cccc(Cl)c3)c(=O)c12 [CNDR-51388, 5-Amino-3-(3-chlorophenyl)-4-oxo-3,4-dihydrothieno[3,4-d]pyridazine-1-carboxylic acid] | 92 | −5.8 | 71 |  | 
COC(=O)c1nn(-c2cccc(C(F)(F)F)c2)c(=O)c2c(N)scc12 [Compound 19] |  |  |  |  | inhibition at 80 µM ([1]; Table 3): 66%; IC50 ([1]; Table 3, NC = not calculated due to insufficient activity): 10 µM; Tau Cent. Assay % Soluble ([2]; Table 3): 41%
CCOC(=O)c1nn(-c2ccc([N+](=O)[O-])cc2)c(=O)c2c(N)scc12 [CNDR-51352, Ethyl 5-amino-3-(4-nitrophenyl)-4-oxo-3,4-dihydrothieno[3,4-d]pyridazine-1-carboxylate] | 69 |  | 59 | 50.1 | 
CCOC(=O)c1nn(-c2ccccc2C)c(=O)c2c(N)scc12 [CNDR-51424, Ethyl 5-amino-4-oxo-3-(o-tolyl)-3,4-dihydrothieno[3,4-d]pyridazine-1-carboxylate] | 82 |  | 58 | 1.26 | 
CC(C)NC(=O)c1nn(-c2ccc(O)cc2)c(=O)c2c(N)scc12 [CNDR-51376, 5-Amino-3-(4-hydroxyphenyl)-N-isopropyl-4-oxo-3,4-dihydrothieno[3,4-d]pyridazine-1-carboxamide] | 86 | −4.8 | 84 |  | 
CCOC(=O)c1nn(-c2cccc(Cl)c2)c(=O)c2c(N)scc12 [CNDR-51387] |  | −5.7 | 71 |  | Tau ThT Assay % Inhib. ([1]; Table 4): 90%
CCOC(=O)c1nn(-c2ccc(C)cc2C)c(=O)c2c(N)scc12 [CNDR-51434] |  | −5.7 | 56 |  | Tau ThT Assay % Inhib. ([1]; Table 4): 87%
CCN(CC)C(=O)c1nn(-c2ccc(OC)cc2)c(=O)c2c(N)scc12 [CNDR-51443, 5-Amino-N,N-diethyl-3-(4-methoxyphenyl)-4-oxo-3,4-dihydrothieno[3,4-d]pyridazine-1-carboxamide] | 75 |  | 59 | 7.94 | 
CCOC(=O)c1nn(-c2ccccc2F)c(=O)c2c(N)scc12 [CNDR-51439, Ethyl 5-amino-3-(2-fluorophenyl)-4-oxo-3,4-dihydrothieno[3,4-d]pyridazine-1-carboxylate] | 48 |  | 41 | 0.794 | 
CCOC(=O)c1nn(-c2ccc(N)cc2)c(=O)c2c(N)scc12 [CNDR-51355, Ethyl 5-amino-3-(4-aminophenyl)-4-oxo-3,4-dihydrothieno[3,4-d]pyridazine-1-carboxylate] | 74 |  | 67 | 1.26 | 
CCOC(=O)c1nn(-c2ccc(Cl)cc2)c(=O)c2c(NC)scc12 [CNDR-51360, Ethyl 3-(4-chlorophenyl)-5-(methylamino)-4-oxo-3,4-dihydrothieno[3,4-d]pyridazine-1-carboxylate] | 39 |  | 51 | 5.01 | 
Nc1scc2c(C(=O)O)nn(-c3ccc(F)cc3)c(=O)c12 [CNDR-51395, 5-Amino-3-(4-fluorophenyl)-4-oxo-3,4-dihydrothieno[3,4-d]pyridazine-1-carboxylic acid] | 84 | −5.7 | 83 |  | 
CCOC(=O)c1nn(-c2ccccc2)c(=O)c2c(NC(C)=O)scc12 [Compound 9b] |  |  |  |  | inhibition at 80 µM ([1]; Table 3): 27%; Tau Cent. Assay % Soluble ([2]; Table 3): 11%
